Reference: US10815239B2, “Compounds useful as inhibitors of ATR kinase” (Vertex Pharmaceuticals Incorporated, priority 2013, dated 2020)

Target: T1, full-length ATR (Homo sapiens, UniProt Q13535)
T1 construct: Assays are carried out at 25° C. in the presence of 5 nM full-length ATR
Assay: ATR Inhibition Assay (radioactive-phosphate incorporation)
Assay type: biochemical
Details: 5 nM full-length ATR, 10 μM ATP, 800 μM target peptide, 25° C.; read-out: Ki (Ki(app)) for inhibition of ATR
Description: Compounds can be screened for their ability to inhibit ATR kinase using a radioactive-phosphate incorporation assay. Assays are carried out in a mixture of 50 mM Tris/HCl (pH 7.5), 10 mM MgCl2 and 1 mM DTT. Final substrate concentrations are 10 μM [γ-33P]ATP (3 mCi 33P ATP/mmol ATP, Perkin Elmer) and 800 μM target peptide (ASELPASQPQPFSAKKK).
Assays are carried out at 25° C. in the presence of 5 nM full-length ATR. An assay stock buffer solution is prepared containing all of the reagents listed above, with the exception of ATP and the test compound of interest. 13.5 μL of the stock solution is placed in a 96 well plate followed by addition of 2 μL of DMSO stock containing serial dilutions of the test compound (typically starting from a final concentration of 15 μM with 3-fold serial dilutions) in duplicate (final DMSO concentration 7%). The plate is pre-incubated for 10 minutes at 25° C. and the reaction initiated by addition of 15 μL [γ-33P]ATP (final concentration 10 μM).
The reaction is stopped after 24 hours by the addition of 30 μL 0.1M phosphoric acid containing 2 mM ATP. […]
After removing mean background values for all of the data points, Ki(app) data are calculated from non-linear regression analysis of the initial rate data using the Prism software package (GraphPad Prism version 3.0cx for Macintosh, GraphPad Software, San Diego Calif., USA).

T1 sequence (Q13535 whole entry): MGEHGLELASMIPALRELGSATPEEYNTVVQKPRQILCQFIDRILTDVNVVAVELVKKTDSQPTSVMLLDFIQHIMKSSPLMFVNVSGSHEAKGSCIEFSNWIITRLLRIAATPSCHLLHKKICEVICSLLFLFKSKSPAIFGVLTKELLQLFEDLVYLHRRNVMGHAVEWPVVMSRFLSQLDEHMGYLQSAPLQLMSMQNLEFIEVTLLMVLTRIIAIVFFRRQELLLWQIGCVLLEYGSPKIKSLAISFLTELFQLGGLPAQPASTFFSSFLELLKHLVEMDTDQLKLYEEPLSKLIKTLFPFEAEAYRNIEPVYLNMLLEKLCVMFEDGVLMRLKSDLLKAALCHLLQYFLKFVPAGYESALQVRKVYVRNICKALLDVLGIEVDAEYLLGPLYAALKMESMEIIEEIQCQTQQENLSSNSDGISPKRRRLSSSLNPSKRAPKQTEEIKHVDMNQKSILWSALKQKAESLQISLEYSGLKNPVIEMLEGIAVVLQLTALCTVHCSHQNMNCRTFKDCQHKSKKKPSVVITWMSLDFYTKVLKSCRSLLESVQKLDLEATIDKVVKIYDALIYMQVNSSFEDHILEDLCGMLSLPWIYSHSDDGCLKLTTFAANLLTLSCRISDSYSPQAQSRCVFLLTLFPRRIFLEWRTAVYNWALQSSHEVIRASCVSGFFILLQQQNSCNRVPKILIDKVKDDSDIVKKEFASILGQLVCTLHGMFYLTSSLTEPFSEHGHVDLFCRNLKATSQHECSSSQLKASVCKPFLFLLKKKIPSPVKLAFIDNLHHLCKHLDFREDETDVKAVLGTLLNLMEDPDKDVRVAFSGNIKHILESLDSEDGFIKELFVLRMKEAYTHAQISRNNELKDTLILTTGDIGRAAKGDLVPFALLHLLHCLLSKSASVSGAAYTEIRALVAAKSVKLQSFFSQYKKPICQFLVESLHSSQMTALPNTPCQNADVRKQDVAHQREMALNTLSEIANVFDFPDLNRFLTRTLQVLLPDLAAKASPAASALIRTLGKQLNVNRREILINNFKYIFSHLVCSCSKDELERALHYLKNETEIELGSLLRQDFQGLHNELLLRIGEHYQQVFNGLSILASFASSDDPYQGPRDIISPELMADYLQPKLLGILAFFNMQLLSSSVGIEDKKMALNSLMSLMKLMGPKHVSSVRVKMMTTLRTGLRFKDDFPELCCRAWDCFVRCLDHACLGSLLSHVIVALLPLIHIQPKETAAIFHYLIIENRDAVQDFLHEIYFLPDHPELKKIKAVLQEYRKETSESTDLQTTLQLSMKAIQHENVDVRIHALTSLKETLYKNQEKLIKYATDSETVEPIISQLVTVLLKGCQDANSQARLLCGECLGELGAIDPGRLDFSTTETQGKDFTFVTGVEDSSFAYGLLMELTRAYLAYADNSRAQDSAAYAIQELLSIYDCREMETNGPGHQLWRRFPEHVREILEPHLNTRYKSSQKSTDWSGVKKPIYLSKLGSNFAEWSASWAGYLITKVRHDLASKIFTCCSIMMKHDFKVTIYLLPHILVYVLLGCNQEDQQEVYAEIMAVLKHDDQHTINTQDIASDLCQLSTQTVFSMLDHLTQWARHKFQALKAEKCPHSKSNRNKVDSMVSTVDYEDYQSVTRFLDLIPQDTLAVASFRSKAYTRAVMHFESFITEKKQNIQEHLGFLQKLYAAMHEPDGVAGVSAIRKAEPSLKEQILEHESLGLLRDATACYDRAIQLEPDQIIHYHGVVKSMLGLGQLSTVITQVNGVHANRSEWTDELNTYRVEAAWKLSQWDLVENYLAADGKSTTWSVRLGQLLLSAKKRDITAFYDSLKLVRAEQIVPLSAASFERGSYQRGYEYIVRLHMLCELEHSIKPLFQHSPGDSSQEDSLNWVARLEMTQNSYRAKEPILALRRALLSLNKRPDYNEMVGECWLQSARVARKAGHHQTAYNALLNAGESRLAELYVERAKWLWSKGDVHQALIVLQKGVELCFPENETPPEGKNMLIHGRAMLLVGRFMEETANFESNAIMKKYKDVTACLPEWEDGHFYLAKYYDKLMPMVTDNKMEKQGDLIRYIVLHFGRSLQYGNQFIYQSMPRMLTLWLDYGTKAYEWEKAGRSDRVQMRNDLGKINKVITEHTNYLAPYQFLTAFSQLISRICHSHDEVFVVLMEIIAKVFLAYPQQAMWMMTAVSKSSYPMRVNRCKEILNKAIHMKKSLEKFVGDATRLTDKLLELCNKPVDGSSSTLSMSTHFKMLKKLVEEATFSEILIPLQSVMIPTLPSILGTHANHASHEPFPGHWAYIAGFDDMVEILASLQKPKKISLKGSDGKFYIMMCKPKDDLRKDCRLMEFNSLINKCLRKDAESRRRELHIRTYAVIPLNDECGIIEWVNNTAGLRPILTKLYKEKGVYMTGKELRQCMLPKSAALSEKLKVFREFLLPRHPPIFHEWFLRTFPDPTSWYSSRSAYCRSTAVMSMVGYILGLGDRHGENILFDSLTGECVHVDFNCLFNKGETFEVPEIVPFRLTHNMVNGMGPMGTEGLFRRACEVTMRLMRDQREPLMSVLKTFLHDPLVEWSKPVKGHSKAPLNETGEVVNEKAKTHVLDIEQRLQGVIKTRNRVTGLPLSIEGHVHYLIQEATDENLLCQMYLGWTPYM

Ki [nM] | Compound
< 1000 | [2H]C1([2H])N(C(=O)C2CCN(c3c(F)cncc3NC(=O)c3c(N)nn4cc(F)cnc34)CC2)C([2H])([2H])C([2H])([2H])N(C2COC2)C1([2H])[2H] [Compound I-3, 2-amino-6-fluoro-N-(5-fluoro-4-(4-(2,2,3,3,5,5,6,6-octadeutero-4-(oxetan-3-yl)piperazine-1-carbonyl)piperidin-1-yl)-3-pyridyl)pyrazolo[1,5-a]pyrimidine-3-carboxamide]
< 1000 | Nc1nn2cc(F)cnc2c1C(=O)Nc1cncc(F)c1N1CCC(C(=O)N2CCN(C3COC3)CC2)CC1 [Compound I-1, 2-amino-6-fluoro-N-[5-fluoro-4-[4-[4-(oxetan-3-yl)piperazine-1-carbonyl]-1-piperidyl]-3-pyridyl]pyrazolo[1,5-a]pyrimidine-3-carboxamide]
